Each molecule was assayed on DT (assay: Cell proliferation IC50 assay (Cell Titer GLO), DT cells). Conditions: Mus musculus; Table 7; DT cells (BaF3 with EGFR mutant), 72 h.
Format: cell-based
Experimental: (§1) IC50 of compounds in the present invention was determined by Cell Titer GLO reagent from Promega. The procedures are as follows:
(§2) Tumor cells were cultured in specified medium in an incubator at 37° C. and 5% CO2. The cells were passaged periodically. Cells at the logarithmic growth phase were collected for plating at a density of 2000-4000 cells/well. The next day, the compounds of the present invention were serially diluted and added to the cells, with DMSO being the negative control and the culture media without cells being the blank control. The plate was incubated in the incubator for 72 h. The cell viability assay was performed by adding the detection reagents to the cell culture media according to Cell Titer GLO reagent instructions and detecting luminescent signals on an EnVision microplate reader (PerkinElmer).
(§3) Inhibition of cell growth by the compounds of the present invention was plotted by Prism Graphpad software for statistically calculating the IC50 of the compound of the present invention.

SMILES | IC50
CCc1cc(Nc2ncc(Cl)c(Nc3ccccc3P(C)(C)=O)n2)c(OC)cc1N1CCC(N2Cc3ccc(Oc4cccc5c4CN(C4CCC(=O)NC4=O)C5=O)cc3C2)CC1 (stereo not drawn) [Example E120] | 7.8 nM
CCc1cc(Nc2ncc(Cl)c(Nc3ccccc3P(C)(C)=O)n2)c(OC)cc1N1CCC(N2CCN(CCOc3cccc4c3CN(C3CCC(=O)NC3=O)C4=O)CC2)CC1 (stereo not drawn) [Example E95] | 4 nM

Each molecule was assayed on BaF3 (EGFR WT) (assay: Cell proliferation IC50 assay (Cell Titer GLO), BaF3 WT cells). Conditions: Mus musculus, Ba/F3 EGFR, Table 6, 10 ng/ml EGF, 72 h.
Format: cell-based
In short: (§4)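 Growth inhibition is measured over 72 h of continuous compound treatment in cells seeded at 2000-4000 per well.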

SMILES | IC50
CCc1cc(Nc2ncc(Cl)c(Nc3ccccc3P(C)(C)=O)n2)c(OC)cc1N1CCC(N2Cc3ccc(Oc4cccc5c4CN(C4CCC(=O)NC4=O)C5=O)cc3C2)CC1 (stereo not drawn) [Example E120] | ≥ 2160 nM
CCc1cc(Nc2ncc(Cl)c(Nc3ccccc3P(C)(C)=O)n2)c(OC)cc1N1CCC(N2CCN(CCOc3cccc4c3CN(C3CCC(=O)NC3=O)C4=O)CC2)CC1 (stereo not drawn) [Example E95] | ≥ 1820 nM

What follows are molecules tested on human EGFR-DTC (assay: EGFR protein abundance assay (Western blotting), EGFR-DTC). Conditions: Ba/F3 cells expressing human EGFR-DTC, 24 h, Western blot.
Format: cell-based
Experimental: (§5) Mouse Ba/F3 cells stably expressing human EGFR-DTC, EGFR-LTC, or EGFR-DC were transferred to Petri dishes with RPMI-1640 medium (Gibco, Product No. 11875093) containing 10% fetal bovine serum (FBS, Biological Industries, Product No. 04-001-1A) and 0.1% penicillin/streptomycin (P/S) and incubated in an aseptic incubator at 37° C., 95% relative humidity, and 5% CO2. Cells at the logarithmic growth phase were taken and seeded at a density of 50000 cells/well in 12-well plates (Corning, Product No. 3513) containing 1 mL of medium per well. After 24 h, the compounds disclosed herein with different concentrations were added to the wells at a final DMSO concentration of 0.1%. After 24 h, cells were lysed in SDS lysis buffer (1.45 g of SDS, 0.2 g of Tris base, 6 mL of glycerol, 20 mg of bromophenol blue, 310 mg DTT; brought to 40 mL with d2H2O), and the EGFR levels were detected and analyzed by Western Blotting (immunoblotting) using standard molecular biological techniques. Cell lysates were boiled at 95° C. for 8 min, mixed and centrifuged. The total cell proteins in the lysates were subjected to SDS-PAGE (GenScript, Product No. M00654), transferred to NC membranes (GE, Product No. 1060002) by blotting, incubated in a blocking buffer (TAKARA, Product No. T7131A) at room temperature for 60 min, and co-incubated overnight at 4° C. with the following primary antibodies: anti-EGFR (#4267S, 1:1000), anti-phoso-EGFR (#3777S, 1:1000), anti-GAPDH (#5174S, 1:10000), anti-Actin (#5125 S, 1:10000) (all purchased from Cell Signaling Technology). The samples were washed three times with TBST at room temperature, each for 10 min, and then incubated for 60 minutes in a blocking buffer containing a secondary antibody (#7074S, 1:10000, purchased from Cell Signaling Technology) at room temperature. The samples were washed three times with TBST at room temperature, each for 10 min. Chemiluminescent substrates were added, and an Azure c300 system was used for imaging.

SMILES | DC50 | EGFR-DTC Dmax
CCc1cc(Nc2ncc(Cl)c(Nc3ccccc3P(C)(C)=O)n2)c(OC)cc1N1CCC(N2Cc3ccc(Oc4cccc5c4CN(C4CCC(=O)NC4=O)C5=O)cc3C2)CC1 (stereo not drawn) [Example E120] | 7.17 nM | 86%
CCc1cc(Nc2ncc(Cl)c(Nc3ccccc3P(C)(C)=O)n2)c(OC)cc1N1CCC(N2CCN(CCOc3cccc4c3CN(C3CCC(=O)NC3=O)C4=O)CC2)CC1 (stereo not drawn) [Example E95] | 3.02 nM | 91%

These molecules were tested on BaF3 (EGFR L858R/T790M/C797S) (assay: Cell proliferation IC50 assay (Cell Titer GLO), BaF3 LTC cells). Conditions: Mus musculus, Ba/F3 EGFR, Table 6, 72 h.
Format: cell-based
In short: as §4

SMILES | IC50
CCc1cc(Nc2ncc(Cl)c(Nc3ccccc3P(C)(C)=O)n2)c(OC)cc1N1CCC(N2Cc3ccc(Oc4cccc5c4CN(C4CCC(=O)NC4=O)C5=O)cc3C2)CC1 (stereo not drawn) [Example E120] | 115 nM
CCc1cc(Nc2ncc(Cl)c(Nc3ccccc3P(C)(C)=O)n2)c(OC)cc1N1CCC(N2CCN(CCOc3cccc4c3CN(C3CCC(=O)NC3=O)C4=O)CC2)CC1 (stereo not drawn) [Example E95] | 48.4 nM

Each molecule was assayed on BaF3 (EGFR Del19/T790M/C797S) (assay: Cell proliferation IC50 assay (Cell Titer GLO), BaF3 DTC cells). Conditions: Mus musculus, Ba/F3 EGFR-Del19/T790M/C797S, Table 6, 72 h.
Format: cell-based
In short: as §4

SMILES | IC50
CCc1cc(Nc2ncc(Cl)c(Nc3ccccc3P(C)(C)=O)n2)c(OC)cc1N1CCC(N2Cc3ccc(Oc4cccc5c4CN(C4CCC(=O)NC4=O)C5=O)cc3C2)CC1 (stereo not drawn) [Example E120] | 14.7 nM
CCc1cc(Nc2ncc(Cl)c(Nc3ccccc3P(C)(C)=O)n2)c(OC)cc1N1CCC(N2CCN(CCOc3cccc4c3CN(C3CCC(=O)NC3=O)C4=O)CC2)CC1 (stereo not drawn) [Example E95] | 5.37 nM

These molecules were tested on A431 (assay: Cell proliferation IC50 assay (Cell Titer GLO), A431 cells). Conditions: Homo sapiens, A-431; Table 6; A431, 72 h; read-out: A431 IC50.
Format: cell-based
In short: as §4

SMILES | IC50
CCc1cc(Nc2ncc(Cl)c(Nc3ccccc3P(C)(C)=O)n2)c(OC)cc1N1CCC(N2Cc3ccc(Oc4cccc5c4CN(C4CCC(=O)NC4=O)C5=O)cc3C2)CC1 (stereo not drawn) [Example E120] | ≥ 1560 nM
CCc1cc(Nc2ncc(Cl)c(Nc3ccccc3P(C)(C)=O)n2)c(OC)cc1N1CCC(N2CCN(CCOc3cccc4c3CN(C3CCC(=O)NC3=O)C4=O)CC2)CC1 (stereo not drawn) [Example E95] | 1730 nM

Each molecule was assayed against T1, BaF3 (EGFR Del19/C797S) (Homo sapiens, UniProt P00533, C797S, cells depend on it, form not given) (assay: Cell proliferation IC50 assay (Cell Titer GLO), BaF3 DC cells). Conditions: Table 7, 72 h.
T1 construct: BaF3 (EGFR Del19/C797S)|DC|RPMI1640 + 10% FBS
Format: cell-based, mouse
In short: as §4

T1 sequence (P00533 with tags, fused parts or gaps DEL746-750/C797S, form open): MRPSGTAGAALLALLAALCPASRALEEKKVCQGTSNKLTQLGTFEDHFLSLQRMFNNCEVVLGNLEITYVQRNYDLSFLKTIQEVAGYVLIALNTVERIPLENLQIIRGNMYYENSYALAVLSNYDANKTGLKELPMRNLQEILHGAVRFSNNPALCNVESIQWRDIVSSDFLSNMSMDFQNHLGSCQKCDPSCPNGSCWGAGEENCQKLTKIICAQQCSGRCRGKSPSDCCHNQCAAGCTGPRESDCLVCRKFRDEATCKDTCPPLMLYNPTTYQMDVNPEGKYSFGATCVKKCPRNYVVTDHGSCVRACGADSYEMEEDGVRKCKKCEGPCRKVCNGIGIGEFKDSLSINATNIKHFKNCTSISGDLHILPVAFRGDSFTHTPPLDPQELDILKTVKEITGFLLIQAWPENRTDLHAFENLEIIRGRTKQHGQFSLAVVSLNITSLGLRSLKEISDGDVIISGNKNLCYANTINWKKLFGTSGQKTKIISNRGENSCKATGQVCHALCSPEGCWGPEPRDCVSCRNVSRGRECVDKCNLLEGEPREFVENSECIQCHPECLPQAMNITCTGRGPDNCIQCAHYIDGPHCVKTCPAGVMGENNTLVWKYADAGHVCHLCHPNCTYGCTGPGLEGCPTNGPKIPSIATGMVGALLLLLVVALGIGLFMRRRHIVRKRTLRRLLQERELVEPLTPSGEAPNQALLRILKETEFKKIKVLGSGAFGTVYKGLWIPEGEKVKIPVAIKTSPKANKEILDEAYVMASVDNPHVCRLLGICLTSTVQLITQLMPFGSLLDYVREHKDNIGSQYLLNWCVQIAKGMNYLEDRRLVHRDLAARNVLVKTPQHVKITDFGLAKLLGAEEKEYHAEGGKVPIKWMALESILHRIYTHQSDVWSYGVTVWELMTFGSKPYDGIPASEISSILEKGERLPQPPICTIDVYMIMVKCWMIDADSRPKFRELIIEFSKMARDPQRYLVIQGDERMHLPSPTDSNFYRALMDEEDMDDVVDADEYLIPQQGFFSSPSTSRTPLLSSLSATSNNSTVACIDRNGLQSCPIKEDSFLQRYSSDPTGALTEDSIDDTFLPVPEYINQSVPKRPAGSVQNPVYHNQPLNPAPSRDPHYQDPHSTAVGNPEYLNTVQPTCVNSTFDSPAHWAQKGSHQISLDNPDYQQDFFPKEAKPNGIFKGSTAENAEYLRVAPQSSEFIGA

SMILES | IC50
CCc1cc(Nc2ncc(Cl)c(Nc3ccccc3P(C)(C)=O)n2)c(OC)cc1N1CCC(N2Cc3ccc(Oc4cccc5c4CN(C4CCC(=O)NC4=O)C5=O)cc3C2)CC1 (stereo not drawn) [Example E120] | 3.2 nM
CCc1cc(Nc2ncc(Cl)c(Nc3ccccc3P(C)(C)=O)n2)c(OC)cc1N1CCC(N2CCN(CCOc3cccc4c3CN(C3CCC(=O)NC3=O)C4=O)CC2)CC1 (stereo not drawn) [Example E95] | 1.3 nM

What follows are molecules tested against BaF3 (EGFR L858R) (Homo sapiens, UniProt P00533, L858R, cells depend on it) (assay: Cell proliferation IC50 assay (Cell Titer GLO), BaF3 L cells). Conditions: Table 7, 72 h.
Format: cell-based, mouse
Experimental: as §1, §2, §3

SMILES | GI50
CCc1cc(Nc2ncc(Cl)c(Nc3ccccc3P(C)(C)=O)n2)c(OC)cc1N1CCC(N2Cc3ccc(Oc4cccc5c4CN(C4CCC(=O)NC4=O)C5=O)cc3C2)CC1 (stereo not drawn) [Example E120] | 16.6 nM
CCc1cc(Nc2ncc(Cl)c(Nc3ccccc3P(C)(C)=O)n2)c(OC)cc1N1CCC(N2CCN(CCOc3cccc4c3CN(C3CCC(=O)NC3=O)C4=O)CC2)CC1 (stereo not drawn) [Example E95] | 6.6 nM

The molecules below were run on human EGFR-DC (assay: EGFR protein abundance assay (Western blotting), EGFR-DC). Conditions: Ba/F3 cells expressing human EGFR-DC, 24 h, Western blot.
Format: cell-based
Experimental: as §5

SMILES | DC50 | EGFR-DC Dmax
CCc1cc(Nc2ncc(Cl)c(Nc3ccccc3P(C)(C)=O)n2)c(OC)cc1N1CCC(N2CCN(CCOc3cccc4c3CN(C3CCC(=O)NC3=O)C4=O)CC2)CC1 (stereo not drawn) [Example E95] | 10.1 nM | 98%

The molecules below were run against BaF3 (EGFR L858R/C797S) (Homo sapiens, UniProt P00533, C797S/L858R, cells depend on it) (assay: Cell proliferation IC50 assay (Cell Titer GLO), BaF3 LC cells). Conditions: Table 7, 72 h.
Format: cell-based, mouse
Experimental: as §1, §2, §3

BaF3 (EGFR L858R/C797S), sequence (P00533 whole entry C797S/L858R): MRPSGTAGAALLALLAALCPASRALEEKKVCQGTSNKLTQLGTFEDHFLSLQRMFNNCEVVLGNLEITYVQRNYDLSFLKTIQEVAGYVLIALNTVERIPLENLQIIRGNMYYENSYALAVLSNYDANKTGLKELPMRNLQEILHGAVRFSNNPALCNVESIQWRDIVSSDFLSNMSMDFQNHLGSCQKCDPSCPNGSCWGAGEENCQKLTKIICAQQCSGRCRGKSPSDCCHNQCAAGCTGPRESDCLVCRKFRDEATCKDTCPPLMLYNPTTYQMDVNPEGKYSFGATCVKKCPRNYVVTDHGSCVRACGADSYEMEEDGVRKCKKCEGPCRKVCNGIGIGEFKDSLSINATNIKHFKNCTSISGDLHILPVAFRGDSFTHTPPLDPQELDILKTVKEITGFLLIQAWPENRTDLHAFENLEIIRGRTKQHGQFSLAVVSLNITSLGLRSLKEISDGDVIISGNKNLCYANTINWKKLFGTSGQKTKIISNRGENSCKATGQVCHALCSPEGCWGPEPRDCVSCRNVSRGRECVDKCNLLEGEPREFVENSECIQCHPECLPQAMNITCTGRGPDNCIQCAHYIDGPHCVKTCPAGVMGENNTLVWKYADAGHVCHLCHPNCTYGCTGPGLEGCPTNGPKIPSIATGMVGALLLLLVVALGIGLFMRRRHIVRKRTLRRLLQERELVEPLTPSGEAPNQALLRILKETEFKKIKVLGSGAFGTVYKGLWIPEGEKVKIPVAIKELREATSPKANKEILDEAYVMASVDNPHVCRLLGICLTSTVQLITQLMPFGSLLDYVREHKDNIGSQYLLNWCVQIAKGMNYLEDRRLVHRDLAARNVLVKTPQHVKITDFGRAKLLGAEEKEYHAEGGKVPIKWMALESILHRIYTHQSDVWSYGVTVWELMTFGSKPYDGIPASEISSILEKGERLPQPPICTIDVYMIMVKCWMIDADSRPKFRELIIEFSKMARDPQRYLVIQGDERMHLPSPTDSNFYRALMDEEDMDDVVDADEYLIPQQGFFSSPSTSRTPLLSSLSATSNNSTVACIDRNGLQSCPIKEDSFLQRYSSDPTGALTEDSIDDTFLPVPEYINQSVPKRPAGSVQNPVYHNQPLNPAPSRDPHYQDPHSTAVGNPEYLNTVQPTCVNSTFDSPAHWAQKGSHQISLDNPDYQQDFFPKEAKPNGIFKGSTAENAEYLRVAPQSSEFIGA

SMILES | GI50
CCc1cc(Nc2ncc(Cl)c(Nc3ccccc3P(C)(C)=O)n2)c(OC)cc1N1CCC(N2Cc3ccc(Oc4cccc5c4CN(C4CCC(=O)NC4=O)C5=O)cc3C2)CC1 (stereo not drawn) [Example E120] | 33.9 nM
CCc1cc(Nc2ncc(Cl)c(Nc3ccccc3P(C)(C)=O)n2)c(OC)cc1N1CCC(N2CCN(CCOc3cccc4c3CN(C3CCC(=O)NC3=O)C4=O)CC2)CC1 (stereo not drawn) [Example E95] | 16.9 nM

The molecules below were run against BaF3 (EGFR Del19) (Homo sapiens, UniProt P00533, cells depend on it, form not given) (assay: Cell proliferation IC50 assay (Cell Titer GLO), BaF3 D cells). Conditions: Table 7, 72 h.
Format: cell-based, mouse
Experimental: as §1, §2, §3

BaF3 (EGFR Del19), sequence (P00533 with tags, fused parts or gaps DEL746-750): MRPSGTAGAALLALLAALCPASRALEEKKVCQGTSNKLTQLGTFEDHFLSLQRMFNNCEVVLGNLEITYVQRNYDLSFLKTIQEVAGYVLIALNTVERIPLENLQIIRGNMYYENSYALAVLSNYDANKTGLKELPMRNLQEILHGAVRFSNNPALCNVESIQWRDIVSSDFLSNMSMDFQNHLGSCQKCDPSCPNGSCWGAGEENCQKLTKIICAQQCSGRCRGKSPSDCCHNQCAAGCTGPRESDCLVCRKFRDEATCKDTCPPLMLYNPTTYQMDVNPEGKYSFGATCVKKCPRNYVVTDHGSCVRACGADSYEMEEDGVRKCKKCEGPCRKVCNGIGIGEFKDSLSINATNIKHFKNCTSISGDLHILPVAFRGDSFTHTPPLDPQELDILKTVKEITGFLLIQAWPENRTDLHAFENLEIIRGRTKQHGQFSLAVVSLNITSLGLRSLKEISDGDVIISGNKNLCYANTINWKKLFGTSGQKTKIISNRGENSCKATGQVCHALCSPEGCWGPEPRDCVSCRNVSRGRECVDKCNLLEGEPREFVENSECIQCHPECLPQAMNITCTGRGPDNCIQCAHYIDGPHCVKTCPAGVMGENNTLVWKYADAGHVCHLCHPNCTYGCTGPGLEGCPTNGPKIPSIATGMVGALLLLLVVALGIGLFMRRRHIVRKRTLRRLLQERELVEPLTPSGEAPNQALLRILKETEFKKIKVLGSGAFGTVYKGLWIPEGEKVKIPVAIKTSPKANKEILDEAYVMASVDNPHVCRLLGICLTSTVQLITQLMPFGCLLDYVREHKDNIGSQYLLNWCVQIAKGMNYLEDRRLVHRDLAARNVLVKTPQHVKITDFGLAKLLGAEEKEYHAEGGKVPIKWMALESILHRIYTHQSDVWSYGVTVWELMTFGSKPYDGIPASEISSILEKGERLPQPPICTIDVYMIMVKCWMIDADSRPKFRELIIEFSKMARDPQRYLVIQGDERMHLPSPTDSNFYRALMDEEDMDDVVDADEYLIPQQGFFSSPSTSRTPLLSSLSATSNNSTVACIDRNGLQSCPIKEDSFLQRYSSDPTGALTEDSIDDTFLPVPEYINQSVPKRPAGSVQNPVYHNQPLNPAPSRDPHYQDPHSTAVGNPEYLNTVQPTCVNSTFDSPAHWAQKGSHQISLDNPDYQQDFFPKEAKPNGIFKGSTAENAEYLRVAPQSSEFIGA

SMILES | GI50
CCc1cc(Nc2ncc(Cl)c(Nc3ccccc3P(C)(C)=O)n2)c(OC)cc1N1CCC(N2Cc3ccc(Oc4cccc5c4CN(C4CCC(=O)NC4=O)C5=O)cc3C2)CC1 (stereo not drawn) [Example E120] | 1.8 nM
CCc1cc(Nc2ncc(Cl)c(Nc3ccccc3P(C)(C)=O)n2)c(OC)cc1N1CCC(N2CCN(CCOc3cccc4c3CN(C3CCC(=O)NC3=O)C4=O)CC2)CC1 (stereo not drawn) [Example E95] | 0.8 nM

What follows are molecules tested against T2, human EGFR-LTC (Homo sapiens, UniProt P00533, C797S/L858R/T790M) (assay: EGFR protein abundance assay (Western blotting), EGFR-LTC). Conditions: Ba/F3 cells expressing human EGFR-LTC, 24 h, Western blot.
T2 construct: expressed in transfected cells
Format: cell-based
Experimental: as §5

T2 sequence (P00533 25-1210 T790M/C797S/L858R): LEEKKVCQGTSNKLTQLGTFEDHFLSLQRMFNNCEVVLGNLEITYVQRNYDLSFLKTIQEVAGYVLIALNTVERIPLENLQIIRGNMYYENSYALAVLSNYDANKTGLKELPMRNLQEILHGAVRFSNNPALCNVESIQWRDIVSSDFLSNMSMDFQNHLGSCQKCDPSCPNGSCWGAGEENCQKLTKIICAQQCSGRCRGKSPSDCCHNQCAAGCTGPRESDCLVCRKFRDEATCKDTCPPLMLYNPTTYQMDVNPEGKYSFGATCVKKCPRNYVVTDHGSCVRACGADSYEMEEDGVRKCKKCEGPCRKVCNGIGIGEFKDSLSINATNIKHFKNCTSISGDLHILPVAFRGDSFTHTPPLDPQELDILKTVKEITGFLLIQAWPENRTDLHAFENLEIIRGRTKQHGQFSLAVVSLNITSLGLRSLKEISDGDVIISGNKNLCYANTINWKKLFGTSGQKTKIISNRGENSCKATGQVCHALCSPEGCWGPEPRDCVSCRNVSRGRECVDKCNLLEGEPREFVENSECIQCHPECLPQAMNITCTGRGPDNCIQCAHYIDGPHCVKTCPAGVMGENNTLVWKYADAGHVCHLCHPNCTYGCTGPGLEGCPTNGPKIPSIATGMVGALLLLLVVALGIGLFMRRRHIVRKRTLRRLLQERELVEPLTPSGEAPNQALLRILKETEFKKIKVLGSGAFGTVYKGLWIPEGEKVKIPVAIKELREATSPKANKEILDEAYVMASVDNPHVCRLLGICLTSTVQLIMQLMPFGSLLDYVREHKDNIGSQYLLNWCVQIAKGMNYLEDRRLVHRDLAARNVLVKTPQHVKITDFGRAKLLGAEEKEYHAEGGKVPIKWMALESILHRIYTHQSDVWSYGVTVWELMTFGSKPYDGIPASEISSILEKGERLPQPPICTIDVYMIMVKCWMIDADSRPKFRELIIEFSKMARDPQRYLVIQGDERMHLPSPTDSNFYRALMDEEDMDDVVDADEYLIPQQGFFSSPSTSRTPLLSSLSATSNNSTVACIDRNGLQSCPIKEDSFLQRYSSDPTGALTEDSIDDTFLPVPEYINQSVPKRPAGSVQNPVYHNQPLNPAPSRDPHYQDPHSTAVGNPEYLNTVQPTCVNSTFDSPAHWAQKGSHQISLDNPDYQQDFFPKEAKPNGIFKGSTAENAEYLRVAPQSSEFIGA

SMILES | DC50
CCc1cc(Nc2ncc(Cl)c(Nc3ccccc3P(C)(C)=O)n2)c(OC)cc1N1CCC(N2Cc3ccc(Oc4cccc5c4CN(C4CCC(=O)NC4=O)C5=O)cc3C2)CC1 (stereo not drawn) [Example E120] | 13.1 nM
CCc1cc(Nc2ncc(Cl)c(Nc3ccccc3P(C)(C)=O)n2)c(OC)cc1N1CCC(N2CCN(CCOc3cccc4c3CN(C3CCC(=O)NC3=O)C4=O)CC2)CC1 (stereo not drawn) [Example E95] | 2.13 nM

Same assay, conditions: BaF3, Ba/F3 cells expressing human EGFR-LTC, 24 h, Western blot

SMILES | Dmax
CCc1cc(Nc2ncc(Cl)c(Nc3ccccc3P(C)(C)=O)n2)c(OC)cc1N1CCC(N2Cc3ccc(Oc4cccc5c4CN(C4CCC(=O)NC4=O)C5=O)cc3C2)CC1 (stereo not drawn) [Example E120] | 85%
CCc1cc(Nc2ncc(Cl)c(Nc3ccccc3P(C)(C)=O)n2)c(OC)cc1N1CCC(N2CCN(CCOc3cccc4c3CN(C3CCC(=O)NC3=O)C4=O)CC2)CC1 (stereo not drawn) [Example E95] | 94%

These molecules were tested on LT (assay: Cell proliferation IC50 assay (Cell Titer GLO), LT cells). Conditions: Mus musculus; Table 7; LT cells (BaF3 with EGFR mutant), 72 h.
Format: cell-based
Experimental: as §1, §2, §3

SMILES | IC50
CCc1cc(Nc2ncc(Cl)c(Nc3ccccc3P(C)(C)=O)n2)c(OC)cc1N1CCC(N2Cc3ccc(Oc4cccc5c4CN(C4CCC(=O)NC4=O)C5=O)cc3C2)CC1 (stereo not drawn) [Example E120] | 9.3 nM
CCc1cc(Nc2ncc(Cl)c(Nc3ccccc3P(C)(C)=O)n2)c(OC)cc1N1CCC(N2CCN(CCOc3cccc4c3CN(C3CCC(=O)NC3=O)C4=O)CC2)CC1 (stereo not drawn) [Example E95] | 3.5 nM

Source: patent publication US20240408216A1, “PROTEIN INHIBITOR OR DEGRADING AGENT, PHARMACEUTICAL COMPOSITION CONTAINING SAME AND PHARMACEUTICAL USE” (JING MEDICINE TECHNOLOGY (SHANGHAI) LTD., priority 2021, published 2024)
